The assay concerns the target T1, Muscarinic acetylcholine receptor M5 (Homo sapiens, UniProt P08912).
T1 sequence (P08912 whole entry): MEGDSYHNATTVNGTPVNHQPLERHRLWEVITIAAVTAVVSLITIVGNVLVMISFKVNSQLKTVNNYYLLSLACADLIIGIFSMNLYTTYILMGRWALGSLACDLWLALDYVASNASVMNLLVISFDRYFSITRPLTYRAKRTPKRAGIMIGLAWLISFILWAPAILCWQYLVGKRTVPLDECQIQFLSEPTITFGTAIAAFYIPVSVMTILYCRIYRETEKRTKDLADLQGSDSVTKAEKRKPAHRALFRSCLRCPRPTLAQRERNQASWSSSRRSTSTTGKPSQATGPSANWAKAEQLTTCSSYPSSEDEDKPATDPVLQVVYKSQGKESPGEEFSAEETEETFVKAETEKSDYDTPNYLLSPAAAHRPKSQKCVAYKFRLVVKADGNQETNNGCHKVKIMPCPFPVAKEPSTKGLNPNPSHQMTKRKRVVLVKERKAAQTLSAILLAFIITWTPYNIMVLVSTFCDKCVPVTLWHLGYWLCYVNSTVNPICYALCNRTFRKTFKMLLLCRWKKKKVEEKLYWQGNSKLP
The assay can be described thus: binding competition at muscarinic M5 – biochemical, [3H]N-methylscopolamine (AID 2192). As to conditions: inactive by the depositor's call.

From BindingDB's records for doi:10.7270/Q2N8786X (Vanderbilt Screening Center For Gpcrs, Ion Channels and …, 2009) come the findings set out here.

Usually Ki stands for a dissociation constant, usually derived from enzyme kinetics or from competition with a known ligand.

`COc1ccc(CN2C(=O)C(=O)c3cc(OC(F)(F)F)ccc32)cc1` [VU0238429] gave a Ki of 1160 nM.
